According to US20250154163A1, “Pyrimidinone-Containing 17-Beta-Hydroxysteroid Dehydrogenase Type 13 Inhibitors” (ENANTA PHARMACEUTICALS, INC., priority 2023, published 2025):

Key:
[1] = biological target: T1, Recombinant human 17β-HSD13 (Homo sapiens, UniProt Q7Z5P4); test: 17β-HSD13 rapid-fire mass spectrometry assay (RF/MS assay); type: biochemical; details: inhibition of 17β-HSD13, RF/MS assay; HSD17B13 80 nM, LTB4 10 μM, NAD+ 0.5 mM, RT 3 h
T1 construct: host or cells: Sf9 insect cells
T1 sequence (Q7Z5P4 20-300): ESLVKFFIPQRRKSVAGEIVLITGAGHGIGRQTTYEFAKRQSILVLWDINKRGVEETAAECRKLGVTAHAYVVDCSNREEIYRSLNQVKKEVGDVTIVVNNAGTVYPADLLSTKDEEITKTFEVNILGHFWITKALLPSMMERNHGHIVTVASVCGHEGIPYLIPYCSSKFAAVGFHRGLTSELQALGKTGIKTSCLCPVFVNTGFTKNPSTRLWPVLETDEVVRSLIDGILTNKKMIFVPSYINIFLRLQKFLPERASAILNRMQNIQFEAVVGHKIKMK
Excerpt: 17(3-HSD13 rapid-fire mass spectrometry assay (RF/MS assay). Recombinant human 17β-HSD13 was expressed and purified from sf9 cells at Charles River Labs (Saffron Walden, UK). Leukotriene B4 (Catalog #71160-24-2) and 12-oxoleukotriene B4 (Catalog #20140) were purchased from Cayman Chemicals (Ann Arbor, MI). NAD+ (Catalog #N8285), BSA (Catalog #A7030), DMSO (Catalog #D2650), and Tween-20 (Catalog #11332465001) were purchased from Sigma (St. Louis, MO). Formic acid (Catalog #28905) was from ThermoFisher Scientific and 384 deep well PP microplates (Catalog #784261) were from Greiner Bio-One. In a typical IC50 assay performed in a 384w PP microplate, test compounds (0-100 μM) were incubated with HSD17B13 (80 nM), LTB4 (10 μM), and NAD^+ (0.5 mM) in 10 μL assay buffer (20 mM Tris (pH 7.5), BSA (0.005%), and Tween-20 (0.01%)) at RT for 3 h. The assays were quenched by adding 20 μL of 0.15% aqueous formic acid and the plates were frozen at −80° C. RF/MS analysis was performed at PureHoney Technologies (Billerica, MA) on a RapidFire RF300 system (Agilent Technologies, Inc.) coupled to an API 4000 triple quadrupole mass spectrometer (Sciex) equipped with Agilent RapidFire cartridge type A (C4). The mobile phase was 0.09% formic acid and 0.01% trifluoracetic acid in water (Buffer A) and 0.09% formic acid and 0.01% trifluoracetic acid in 80% aqueous acetonitrile (Buffer B). The RapidFire method conditions were the following: 250 ms aspirate, 3000 ms load/desalt, 4000 ms elute, and 500 ms re-equilibrate. RF-MS/MS was performed in negative polarity (−4500 V), the source temperature was 650° C., and gas 1 and gas 2 settings for nitrogen were set to 50. The curtain gas and collision gas were also nitrogen and were set to 20 and 12, respectively. Leukotriene B4 (335.3) and 12-oxoLeukotriene B4 (333.3) SRM transitions were optimized with Discovery Quant software and extracted ion counts for these analytes were determined.
Data Analysis. 17β-HSD13 enzyme activity was measured as percent conversion of extracted ion counts and normalized to high and low controls to determine percent residual activity at various concentrations of test compounds. Data was fitted to normalized activity (variable slope) versus concentration fit in GraphPad Prism 7 to determine IC50. All experiments were run in duplicates.
By using the above method, the inhibition of 17β-HSD13 was evaluated for the compounds of Formula (I). IC50 ranges are as follows: A is <0.1 μM; B is 0.1 μM-1.0 μM; C is 1.0 μM-10 μm; and D is >10 μM.

[2] = biological target: T2, human HSD17β13 (stable HEK293T cell line overexpressing human HSD17β13) (Homo sapiens, UniProt Q7Z5P4); test: HSD17β13 inhibitor cell-based screening assay (conversion of estradiol-d2 to estrone-d2 by RF-MS); details: conversion of estradiol-d2 to estrone-d2 after 24 hours
T2 construct: expressed in transfected cells
T2 sequence (Q7Z5P4 20-300): T1 sequence (Q7Z5P4 20-300)
Summary of the method: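 Cellular IC50 is based on 24-h conversion of estradiol-d2 (5 μM final) to estrone-d2, measured by RF-MS in acetonitrile-precipitated supernatants. Assay uses human HSD17β13-overexpressing HEK293T cells (7.5E3/well, 1% charcoal/dextran FBS MEM), with compounds dosed as a 9-point 1:3 series to 10 μM final. ATPlite luminescence on overexpressing and parent lines measured viability.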

Compound | IC50 [1] [µM] | IC50 [2] [µM]
COc1ccc(-c2nc3sc4c(O)c(Cl)ccc4c3c(=O)n2Cc2cnco2)c(Br)c1 [Example 122] | < 0.1 | < 0.1
COc1ccc(-c2nc3sc4c(O)c(Cl)ccc4c3c(=O)n2Cc2cnco2)c(C2CCC2)c1 [Example 117] | < 0.1 | 0.1 to 0.5
C=Cc1cccc2c1sc1nc(-c3ccc(OC)cc3C3CC3)n(Cc3cnco3)c(=O)c12 [Example 14, 2-(2-cyclopropyl-4-methoxyphenyl)-3-(oxazol-5-ylmethyl)-8-vinylbenzo[4,5]thieno[2,3-d]pyrimidin-4(3H)-one] | > 10 | 1 to 100
CC(C)Oc1ccc(-c2nc3sc4c(O)c(Cl)ccc4c3c(=O)n2Cc2cnco2)c(C2CC2)c1 [Example 73] | < 0.1 | < 0.1
COc1ccc(-c2nc3sc4c(O)c(Cl)ccc4c3c(=O)n2Cc2ocnc2F)c(C2CC2)c1 [Example 220] | < 0.1 | < 0.1
COc1ccc(-c2nc3sc4c(-c5ncco5)cccc4c3c(=O)n2Cc2cnco2)c(C2CC2)c1 [Example 9, 2-(2-cyclopropyl-4-methoxyphenyl)-8-(oxazol-2-yl)-3-(oxazol-5-ylmethyl)benzo[4,5]thieno[2,3-d]pyrimidin-4(3H)-one] | > 10 | 1 to 100
Cc1ncc(Cn2c(-c3ccc(F)cc3C3CC3)nc3sc4c(O)c(Cl)ccc4c3c2=O)o1 [Example 44, 7-chloro-2-(2-cyclopropyl-4-fluorophenyl)-8-hydroxy-3-((2-methyloxazol-5-yl)methyl)benzo[4,5]thieno[2,3-d]pyrimidin-4(3H)-one] | < 0.1 | < 0.1
COc1ccc(-c2nc3sc4c(O)c(Cl)ccc4c3c(=O)n2Cc2cnc(Cl)s2)c(C2CC2)c1 [Example 191] | < 0.1 | < 0.1
COc1ccc(-c2nc3sc4c(O)c(Cl)ccc4c3c(=O)n2Cc2cn(C(F)(F)F)nn2)c(C2CC2)c1 [Example 130] | < 0.1 | < 0.1
COc1cc(C2CC2)c(-c2nc3sc4c(O)c(Cl)cc(Cl)c4c3c(=O)n2Cc2cnco2)cc1Cl [Example 19, 5,7-dichloro-2-(5-chloro-2-cyclopropyl-4-methoxyphenyl)-8-hydroxy-3-(oxazol-5-ylmethyl)benzo[4,5]thieno[2,3-d]pyrimidin-4(3H)-one] | 0.1 to 1 | 0.1 to 0.5
COc1ccc(-c2nc3sc4c(O)cccc4c3c(=O)n2Cc2ocnc2F)c(C2CC2)c1 [Example 25, 2-(2-cyclopropyl-4-methoxyphenyl)-3-((4-fluorooxazol-5-yl)methyl)-8-hydroxybenzo[4,5]thieno[2,3-d]pyrimidin-4(3H)-one] | < 0.1 | 0.1 to 0.5
COc1ccc(-c2nc3sc4c(O)c(Cl)ccc4c3c(=O)n2Cc2cnco2)c(C(C)C)c1 [Example 125] | < 0.1 | < 0.1
CCc1ncc(Cn2c(-c3ccc(OC)cc3C3CC3)nc3sc4c(O)c(Cl)ccc4c3c2=O)s1 [Example 41, 7-chloro-2-(2-cyclopropyl-4-methoxyphenyl)-3-((2-ethylthiazol-5-yl)methyl)-8-hydroxybenzo[4,5]thieno[2,3-d]pyrimidin-4(3H)-one] | < 0.1 | < 0.1
COc1ccc(-c2nc3sc4c(OCCO)cccc4c3c(=O)n2Cc2cnco2)c(C2CC2)c1 [Example 20, 2-(2-cyclopropyl-4-methoxyphenyl)-8-(2-hydroxyethoxy)-3-(oxazol-5-ylmethyl)benzo[4,5]thieno[2,3-d]pyrimidin-4(3H)-one] | > 10 | 1 to 100
O=c1ccc(Cn2c(-c3cc(F)c(F)cc3C3CC3)nc3sc4c(O)c(Cl)ccc4c3c2=O)c[nH]1 [Example 169] | < 0.1 | < 0.1
O=c1c2c(nc(-c3cc(F)c(F)cc3C3CC3)n1Cc1cnc(C(F)(F)F)nc1)sc1c(O)c(Cl)ccc12 [Example 63, 7-chloro-2-(2-cyclopropyl-4,5-difluorophenyl)-8-hydroxy-3-((2-(trifluoromethyl)pyrimidin-5-yl)methyl)benzo[4,5]thieno[2,3-d]pyrimidin-4(3H)-one] | < 0.1 | < 0.1
COc1ccc(-c2nc3sc4cc(O)ccc4c3c(=O)n2Cc2cnco2)c(C2CC2)c1 [Example 36, 2-(2-cyclopropyl-4-methoxyphenyl)-7-hydroxy-3-(oxazol-5-ylmethyl)benzo[4,5]thieno[2,3-d]pyrimidin-4(3H)-one] | > 10 | 1 to 100
COc1ccc(-c2nc3sc4c(O)c(Cl)ccc4c3c(=O)n2Cc2cc(C(F)(F)F)no2)c(C2CC2)c1 [Example 48, 7-chloro-2-(2-cyclopropyl-4-methoxyphenyl)-8-hydroxy-3-((3-(trifluoromethyl)isoxazol-5-yl)methyl)benzo[4,5]thieno[2,3-d]pyrimidin-4(3H)-one] | < 0.1 | < 0.1

The remaining lines, values ahead:

IC50 [1] [µM] | IC50 [2] [µM] | Compound
< 0.1 | < 0.1 | CCOc1ccc(-c2nc3sc4c(O)c(Cl)ccc4c3c(=O)n2Cc2cnco2)c(C2CC2)c1 [Example 72, 7-chloro-2-(2-cyclopropyl-4-ethoxyphenyl)-8-hydroxy-3-(oxazol-5-ylmethyl)benzo[4,5]thieno[2,3-d]pyrimidin-4(3H)-one]
< 0.1 | < 0.1 | O=c1c2c(nc(-c3ccc(Cl)cc3C3CC3)n1Cc1cnco1)sc1c(O)c(Cl)ccc12 [Example 106]
< 0.1 | < 0.1 | O=c1c2c(nc(-c3c(C4CC4)cc(F)c(F)c3F)n1Cc1cnco1)sc1c(O)c(Cl)ccc12 [Example 147]
< 0.1 | < 0.1 | O=c1c2c(nc(-c3ccc(OC(F)(F)F)cc3C3CC3)n1Cc1cnco1)sc1c(O)c(Cl)ccc12 [Example 131]
< 0.1 | < 0.1 | O=c1c2c(nc(-c3cc(F)c(F)cc3C3CC3)n1Cc1cnco1)sc1c(O)c(Cl)ccc12 [Example 119]
< 0.1 | < 0.1 | O=c1c2c(nc(-c3c(F)cc(F)cc3C3CC3)n1Cc1cnco1)sc1c(O)c(Cl)ccc12 [Example 144]
< 0.1 | < 0.1 | COc1cc(C2CC2)c(-c2nc3sc4c(O)c(Cl)ccc4c3c(=O)n2Cc2cnco2)cc1Cl [Example 105, 7-chloro-2-(5-chloro-2-cyclopropyl-4-methoxyphenyl)-8-hydroxy-3-(oxazol-5-ylmethyl)benzo[4,5]thieno[2,3-d]pyrimidin-4(3H)-one]
< 0.1 | < 0.1 | COc1cc(-c2nc3sc4c(O)c(Cl)ccc4c3c(=O)n2Cc2cnco2)c(C2CC2)cc1Cl [Example 120]
< 0.1 | < 0.1 | O=c1c2c(nc(-c3ccc(F)cc3C3CC3)n1Cc1cnco1)sc1c(O)c(Cl)ccc12 [Example 42, 7-chloro-2-(2-cyclopropyl-4-fluorophenyl)-8-hydroxy-3-(oxazol-5-ylmethyl)benzo[4,5]thieno[2,3-d]pyrimidin-4(3H)-one]
< 0.1 | < 0.1 | CC(C)(C)c1ccc(-c2nc3sc4c(O)c(Cl)ccc4c3c(=O)n2Cc2cnco2)c(C2CC2)c1 [Example 75, 2-(4-(tert-butyl)-2-cyclopropylphenyl)-7-chloro-8-hydroxy-3-(oxazol-5-ylmethyl)benzo[4,5]thieno[2,3-d]pyrimidin-4(3H)-one]
< 0.1 | < 0.1 | O=c1c2c(nc(-c3cc(F)c(C(F)(F)F)cc3C3CC3)n1Cc1cnco1)sc1c(O)c(Cl)ccc12 [Example 133]
